Laboratory results reported in paper PMC7047272 (ACS Central Science, 2020).

How the values were obtained:
[1] = biological target: β5 of human 20S constitutive proteasome (CP) (Homo sapiens, UniProt P28074); test: Fluorogenic substrate hydrolysis, chymotrypsin-like activity; format: biochemical
[2] = biological target: β5i of human 20S immunoproteasome (IP) (Homo sapiens, UniProt P28062); test: as above; format: biochemical
[3] = biological target: β5 of mouse 20S constitutive proteasome (CP) (Mus musculus, UniProt O55234); test: as above; format: biochemical
[4] = biological target: β5i of mouse 20S immunoproteasome (IP) (Mus musculus, UniProt P28063); test: biochemical
[5] = biological target: β2 of human 20S constitutive proteasome (CP) (Homo sapiens, UniProt Q99436); test: Fluorogenic substrate hydrolysis, trypsin-like activity; format: biochemical
[6] = biological target: β2i of human 20S immunoproteasome (IP) (Homo sapiens, UniProt P40306); test: as above; format: biochemical
[7] = biological target: β2 of mouse 20S constitutive proteasome (CP) (Mus musculus, UniProt P70195); format: biochemical; conditions: at concentrations up to 1 μM
[8] = biological target: β2i of mouse 20S immunoproteasome (IP) (Mus musculus, UniProt O35955); test: biochemical; format: biochemical
[9] = biological target: β1i (LMP2) of mouse 20S immunoproteasome (IP) (Mus musculus, UniProt P28076); test: biochemical
[10] = test system: chymotrypsin-like activity in live LCL721.145 cells (containing immunoproteasome); format: cell-based, human; conditions: MeO-Suc-GLF-AMC, up to 1 μM

Compound | IC50 [1] | IC50 [2] | IC50 [3] | IC50 [4] | IC50 [5] | IC50 [6] | effect on β2 of the constitutive proteasome [7] | IC50 [8] | selectivity β2/β2i [8] | IC50 [9] | inhibition of chymotrypsin-like activity in live cells (cell permeability) [10]
CCCCCCC/C=C/C=C/C(=O)N[C@H](C(=O)N[C@H]1C[C@@H](O)CCNC(=O)/C=C/[C@H](C)NC1=O)[C@@H](C)O [GlbA, glidobactin A] | 3.6 nM | 25 nM | 0.65 nM | 1.1 nM | 15 nM | 42 nM | almost unaffected | 1.4 nM | > 714 | 250 nM | inactive
CCCCCCC/C=C/C=C/C(=O)N[C@H](C(=O)N[C@H]1CCCCNC(=O)/C=C/[C@H](C)NC1=O)[C@@H](C)O [LumA, luminmycin A] | 39 nM | 1600 nM | 32 nM | 8.9 nM | 260 nM | 170 nM | – | – | – | – | inactive
